Experimental data as given in patent US11746116B2, “Antibiotic resistance breakers” (KING'S COLLEGE LONDON, priority 2017, dated 2023).
≈ marks a conversion by molar mass, not a printed value. Where two headings read alike, the source gives them in different places.

Columns and labels:
AYE = experiment: MIC, microdilution broth method; assay type: cell-based, Acinetobacter baumannii
SA3 = assay type: cell-based, S. aureus
MSSA 9144 strain = experiment: Reserpine (growth) assay for efflux; assay type: cell-based, Staphylococcus aureus; conditions: multidrug-resistant MSSA 9144 strain; compound 0.25×MIC, reserpine 10 μg/mL
EMRSA15 = experiment: MIC, microdilution broth method; assay type: cell-based, Staphylococcus aureus
SA7 = experiment: MIC, extended Gram-positive panel; assay type: cell-based, S. aureus
SA1 = experiment: MIC, extended Gram-positive panel; assay type: cell-based, S. aureus
VRE12201 = experiment: MIC, microdilution broth method; assay type: cell-based, Enterococcus faecalis
SA2 = experiment: MIC, extended Gram-positive panel; assay type: cell-based, S. aureus
EMRSA16 = experiment: MIC, microdilution broth method; assay type: cell-based, Staphylococcus aureus
SA4 = experiment: MIC, extended Gram-positive panel; assay type: cell-based, S. aureus
SA8 = experiment: MIC, extended Gram-positive panel; assay type: cell-based, S. aureus
VRE12204 = experiment: MIC, microdilution broth method; assay type: cell-based, Enterococcus faecium; conditions: in µg/mL; for MIC: VRE12204
EMRSA 15 strain = experiment: Reserpine (growth) assay for efflux; assay type: cell-based, Staphylococcus aureus; conditions: multidrug-resistant EMRSA 15 strain; compound 0.25×MIC, reserpine 10 μg/mL
SA5 = assay type: cell-based, S. aureus
PA01 = experiment: MIC, microdilution broth method; assay type: cell-based, Pseudomonas aeruginosa
KP13368 = experiment: MIC, microdilution broth method; assay type: cell-based
PA13437 = experiment: MIC, microdilution broth method; assay type: cell-based; conditions: for MIC: PA13437
M6 = experiment: MIC, microdilution broth method; assay type: cell-based
SA10 = experiment: MIC, extended Gram-positive panel; assay type: cell-based, S. aureus
Ab17978 = experiment: MIC, microdilution broth method; assay type: cell-based
SE1 = assay type: cell-based, S. epidermidis
SH1 = experiment: MIC, extended Gram-positive panel; assay type: cell-based, S. haemolyticus
VSE775 = experiment: MIC, microdilution broth method; assay type: cell-based, Enterococcus faecalis; set-up: MIC, VSE775: unit not given beside the values
EF1 = experiment: MIC, extended Gram-positive panel; assay type: cell-based, E.faecalis
MSSA9144 = experiment: MIC, microdilution broth method; assay type: cell-based, Staphylococcus aureus
EF2 = experiment: MIC, extended Gram-positive panel; assay type: cell-based, E.faecium
SA6 = experiment: MIC, extended Gram-positive panel; assay type: cell-based, S. aureus
SA9 = assay type: cell-based, S. aureus
[1] = test system: extended panel of MDR strains with known multiple target mutations; assay type: cell-based
[2] = test system: multidrug resistant strains; experiment: Reserpine growth assay in several multidrug resistant strains (FIG. 27); assay type: cell-based; conditions: compared to ML-83-009 or levofloxacin
Procedure: Reserpine was added at a final concentration of 10 μg/mL (made up at 40 μg/mL in TSB, 50 μL per well). The bacteria were added at an OD of 0.01 in TSB (100 μL/well). The plate was a normal clear plate as used for MICs. OD was read every 30 minutes for 9 hours (the literature states 7 hours, but this is strain-dependent).

EC12923 = experiment: MIC, microdilution broth method; assay type: cell-based
[3] = PA01, Normal (no PMBN), in µg/mL
[4] = KP13368, Normal (no PMBN), in µg/mL
[5] = Ab17978, Normal (no PMBN), in µg/mL
[6] = ESKAPE panel, Gram-negative, in µg/mL
[7] = ESKAPE panel, Gram-positive, in µg/mL

## CCn1cc(C(=O)O)c(=O)c2cc(F)c(N3CCN(Cc4cccc5ccccc45)CC3)cc21 [ML-77-021]
AYE; AYE, +PMBN, in µg/mL
  MIC: >32
AYE; AYE, Normal (no PMBN), in µg/mL
  MIC: >32
SA3
  Fold decrease: 32 fold
  MIC: 2 µg/mL (≈ 4.35 µM)
MSSA 9144 strain
  efflux by the strain (reserpine assay): not effluxed
EMRSA15; EMRSA15, in µg/mL
  MIC: 2
SA7; S. aureus SA7, gyrA, 84:S => L, grlA, 80:S => F
  MIC: 2 µg/mL (≈ 4.35 µM)
SA7; SA7, MIC of parent (CIP or NOR) versus ARB-linked derivative
  Fold decrease: ≥64 fold
SA1; S. aureus SA1, gyrA, 84:S => L, grlA, 80:S => F
  MIC: 4 µg/mL (≈ 8.7 µM)
SA1; SA1, MIC of parent (CIP or NOR) versus ARB-linked derivative
  Fold decrease: ≥32 fold
VRE12201; VRE12201, in µg/mL
  MIC: 4
SA2; S. aureus SA2
  MIC: 1 µg/mL (≈ 2.18 µM)
SA2; SA2, MIC of parent (CIP or NOR) versus ARB-linked derivative
  Fold decrease: 8-64 fold
EMRSA16; EMRSA16, in µg/mL
  MIC: 2
SA4; S. aureus SA4, gyrA, 84:S => L, grlA, 80:S => F
  MIC: 2 µg/mL (≈ 4.35 µM)
SA4; SA4, MIC of parent (CIP or NOR) versus ARB-linked derivative
  Fold decrease: 32 fold
SA8; S. aureus SA8, gyrA, 84:S => L, grlA, 80:S => F
  MIC: 2 µg/mL (≈ 4.35 µM)
SA8; SA8, MIC of parent (CIP or NOR) versus ARB-linked derivative
  Fold decrease: 64 fold
VRE12204
  MIC: 2
EMRSA 15 strain
  efflux by the strain (reserpine assay): not effluxed
SA5
  Fold decrease: ≥64 fold
  MIC: 2 µg/mL (≈ 4.35 µM)
PA01; PA01, +PMBN, in µg/mL
  MIC: 0.06-0.25
PA01; [3]
  MIC: >32
KP13368; KP13368, +PMBN, in µg/mL
  MIC: 4-8
KP13368; [4]
  MIC: >32
PA13437; +PMBN
  MIC: > 32 µg/mL
PA13437; Normal (no PMBN)
  MIC: > 32 µg/mL
M6; M6, +PMBN, in µg/mL
  MIC: 1-4
M6; M6, Normal (no PMBN), in µg/mL
  MIC: 32
SA10; S. aureus SA10, gyrA, 84:S => L, grlA, 80:S => F
  MIC: 2 µg/mL (≈ 4.35 µM)
SA10; SA10, MIC of parent (CIP or NOR) versus ARB-linked derivative
  Fold decrease: 64 fold
Ab17978; Ab17978, +PMBN, in µg/mL
  MIC: 0.5
Ab17978; [5]
  MIC: 32
SE1
  Fold decrease: 1-4 fold
SE1; in µg/mL
  MIC: 1
SH1; S. haemolyticus SH1
  MIC: 4 µg/mL (≈ 8.7 µM)
SH1; SH1, MIC of parent (CIP or NOR) versus ARB-linked derivative
  Fold decrease: 32 fold
VSE775; VSE775, in µg/mL
  MIC: 2
EF1; E.faecalis EF1
  MIC: 4 µg/mL (≈ 8.7 µM)
EF1; EF1, MIC of parent (CIP or NOR) versus ARB-linked derivative
  Fold decrease: ≥32 fold
MSSA9144; MSSA9144, in µg/mL
  MIC: 1
EF2; E.faecium EF2, in µg/mL
  MIC: 2-4
EF2; EF2, MIC of parent (CIP or NOR) versus ARB-linked derivative
  Fold decrease: ≥32 fold
SA6; S. aureus SA6, gyrA, 84:S => V, grlA, 80:S => F
  MIC: 2 µg/mL (≈ 4.35 µM)
SA6; SA6, MIC of parent (CIP or NOR) versus ARB-linked derivative
  Fold decrease: ≥64 fold
SA9; S. aureus SA9, gyrA, 84:S => L, grlA, 80:S => F
  MIC: 2 µg/mL (≈ 4.35 µM)
SA9; SA9, MIC of parent (CIP or NOR) versus ARB-linked derivative
  Fold decrease: ≥64 fold

## C[C@H]1COc2c(N3CC[C@@H](Nc4ncccn4)C3)c(F)cc3c(=O)c(C(=O)O)cn1c23 [KSN-L22]
AYE; Acinetobacter baumannii (AYE), Gram-Negative, read-out: MIC
  MIC: 4 µg/mL (≈ 9.4 µM)
AYE; [6]
  MIC, AYE: 4
EMRSA15; EMRSA15 (Table 16, role of the terminal pyrimidine ring), in µg/mL
  MIC, EMRSA15: 0.5-1
EMRSA15; [7]
  MIC, EMRSA15: 0.5
EMRSA15; Staphylococcus aureus, Staphylococcus aureus (EMRSA15), Gram-Positive (Table 14), read-out: MIC
  MIC: 0.5 µg/mL (≈ 1.18 µM)
EMRSA15; Staphylococcus aureus, Staphylococcus aureus (EMRSA15), Table 12, read-out: MIC
  MIC: 0.5 to 1 µg/mL (≈ 1.18 to 2.35 µM)
VRE12201; [7]
  MIC, VRE12201: 0.06
VRE12201; Enterococcus faecalis, Enterococcus (VRE12201), Gram-Positive, read-out: MIC
  MIC: 0.06 µg/mL (≈ 0.141 µM)
EMRSA16; EMRSA16 (Table 16, role of the terminal pyrimidine ring), in µg/mL
  MIC, EMRSA16: 1
EMRSA16; [7]
  MIC, EMRSA16: 1
EMRSA16; S. aureus EMRSA16, gyrA, 84:S => L, grlA, 80:S => F (Table 11)
  MIC: 1
EMRSA16; Staphylococcus aureus (EMRSA16), Gram-Positive (Table 14)
  MIC: 1 µg/mL (≈ 2.35 µM)
EMRSA16; Staphylococcus aureus (EMRSA16), Table 12, read-out: MIC
  MIC: 1 µg/mL (≈ 2.35 µM)
VRE12204; ESKAPE panel, Gram-positive
  MIC, VRE12204: 1
PA01; [6]
  MIC, PA01: 4
PA01; Pseudomonas aeruginosa (PA01), Gram-Negative, read-out: MIC
  MIC: 4 µg/mL (≈ 9.4 µM)
KP13368; ESKAPE panel, Gram-negative
  MIC, KP13368: 4 µg/mL (≈ 9.4 µM)
KP13368; Klebsiella pneumoniae (KP13368), Gram-Negative, read-out: MIC
  MIC: 4 µg/mL (≈ 9.4 µM)
PA13437; ESKAPE panel, Gram-negative
  MIC, PA13437: > 32 µg/mL
M6; [6]
  MIC, M6: 1
M6; Klebsiella pneumoniae (M6), Gram-Negative, read-out: MIC
  MIC: 1 µg/mL (≈ 2.35 µM)
Ab17978; Acinetobacter baumannii
  MIC: 0.125 µg/mL (≈ 0.294 µM)
Ab17978; [6]
  MIC, Ab17978: 0.125
[1]; E. faecalis EF 602
  MIC: 0.25 µg/mL (≈ 0.588 µM)
[1]; E. faecium EF 205
  MIC: 0.12 µg/mL (≈ 0.282 µM)
[1]; S. aureus SA 046, gyrA, 84:S => L, grlA, 80:S => F
  MIC: 1 µg/mL (≈ 2.35 µM)
[1]; S. aureus SA 105, gyrA, 84:S => L, grlA, 80:S => F
  MIC: 1 µg/mL (≈ 2.35 µM)
[1]; S. aureus SA 215, gyrA, 84:S => L, grlA, 80:S => F
  MIC: 1 µg/mL (≈ 2.35 µM)
[1]; S. aureus SA 275, gyrA, 84:S => V, grlA, 80:S => F
  MIC: 1 µg/mL (≈ 2.35 µM)
[1]; S. aureus SA 318, gyrA, 84:S => L, grlA, 80:S => F
  MIC: 1 µg/mL (≈ 2.35 µM)
[1]; S. aureus SA 388, gyrA, 84:S => L, grlA, 80:S => F
  MIC: 1 µg/mL (≈ 2.35 µM)
[2]
  efflux from the bacteria (reserpine growth assay): reduced efflux
VSE775; ESKAPE panel, Gram-positive
  MIC, VSE775: 0.06
VSE775; Enterococcus faecalis, Enterococcus (VRE775), Gram-Positive, read-out: MIC
  MIC: 0.06 µg/mL (≈ 0.141 µM)
MSSA9144; [7]
  MIC, MSSA9144: ≤0.03
MSSA9144; Staphylococcus aureus (MSSA9144), Gram-Positive, read-out: MIC
  MIC: ≤ 0.03 µg/mL
EC12923; [6]
  MIC, EC12923: 0.5
EC12923; Escherichia coli (EC12923), Gram-Negative, read-out: MIC
  MIC: 0.5 µg/mL (≈ 1.18 µM)

## CCn1cc(C(=O)O)c(=O)c2cc(F)c(N3CCNCC3)cc21 [Norfloxacin, norfloxacin, reference compound]
MSSA 9144 strain
  efflux by the strain (reserpine assay): effluxed
VRE12201; VRE12201, in µg/mL
  MIC: 4
VRE12204
  MIC: 4
EMRSA 15 strain
  efflux by the strain (reserpine assay): effluxed
PA01; [3]
  MIC: 2
KP13368; [4]
  MIC: 4
M6; M6, Normal (no PMBN), in µg/mL
  MIC: 0.25
Ab17978; [5]
  MIC: 4
VSE775; VSE775, in µg/mL
  MIC: 8
MSSA9144; MSSA9144, in µg/mL
  MIC: 2
